Measurements from PubChem BioAssay (NCI).
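48-hour exposure; five concentrations; linearly interpolated endpoints. TGI denotes the concentration required for complete inhibition of growth.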

Experiments:
Experiment in all cases: inhibition of tumour cell growth, NCI panel, 48 h
786-0 renal = system: 786-0 renal
A498 renal = system: A498 renal
A549 NSCLC = system: A549 NSCLC
ACHN renal = system: ACHN renal
CAKI-1 renal = system: CAKI-1 renal
CCRF-CEM leukemia = system: CCRF-CEM leukemia
COLO 205 colon = system: COLO 205 colon
DLD-1 colon = system: DLD-1 colon
DMS 114 small cell lung = system: DMS 114 small cell lung
DMS 273 small cell lung = system: DMS 273 small cell lung
EKVX NSCLC = system: EKVX NSCLC
HCC-2998 colon = system: HCC-2998 colon
HCT-116 colon = system: HCT-116 colon
HCT-15 colon = system: HCT-15 colon
HL-60(TB) leukemia = system: HL-60(TB) leukemia
HOP-18 NSCLC = system: HOP-18 NSCLC
HOP-62 NSCLC = system: HOP-62 NSCLC
HT29 colon = system: HT29 colon
IGROV1 ovarian = system: IGROV1 ovarian
K-562 leukemia = system: K-562 leukemia
KM12 colon = system: KM12 colon
KM20L2 colon = system: KM20L2 colon
LOX IMVI melanoma = system: LOX IMVI melanoma
LXFL 529 NSCLC = system: LXFL 529 NSCLC
M14 melanoma = system: M14 melanoma
M19-MEL melanoma = system: M19-MEL melanoma
MALME-3M melanoma = system: MALME-3M melanoma
MOLT-4 leukemia = system: MOLT-4 leukemia
NCI-H226 lung = system: NCI-H226 lung
NCI-H23 lung = system: NCI-H23 lung
NCI-H460 lung = system: NCI-H460 lung
NCI-H522 lung = system: NCI-H522 lung
OVCAR-3 ovarian = system: OVCAR-3 ovarian
OVCAR-4 ovarian = system: OVCAR-4 ovarian
OVCAR-5 ovarian = system: OVCAR-5 ovarian
OVCAR-8 ovarian = system: OVCAR-8 ovarian
RPMI-8226 leukemia = system: RPMI-8226 leukemia
RXF 393 renal = system: RXF 393 renal
SF-268 CNS = system: SF-268 CNS
SF-295 CNS = system: SF-295 CNS
SF-539 CNS = system: SF-539 CNS
SK-MEL-2 melanoma = system: SK-MEL-2 melanoma
SK-MEL-28 melanoma = system: SK-MEL-28 melanoma
SK-MEL-5 melanoma = system: SK-MEL-5 melanoma
SK-OV-3 ovarian = system: SK-OV-3 ovarian
SN12C renal = system: SN12C renal
SNB-19 CNS = system: SNB-19 CNS
SNB-75 CNS = system: SNB-75 CNS
SNB-78 CNS = system: SNB-78 CNS
SW-620 colon = system: SW-620 colon
TK-10 renal = system: TK-10 renal
U251 CNS = system: U251 CNS
UACC-257 melanoma = system: UACC-257 melanoma
UACC-62 melanoma = system: UACC-62 melanoma
UO-31 renal = system: UO-31 renal
HOP-92 NSCLC = system: HOP-92 NSCLC

Measured: TGI

O=C1c2ccccc2C2(O)Nc3c(ccc4ccccc34)C12O (stereo not drawn)
not listed: HOP-92 NSCLC
> 100 µM: all other assays above

CCOC(=O)[C@@]12C(C)=CC(=O)O[C@]1(C)C[C@H]2C#N
not listed: CAKI-1 renal | NCI-H522 lung | OVCAR-5 ovarian
> 100 µM: all other assays above
